Numbered stars: 1 amine (or outer) side, 2 acyl side, 3 side chain; on linkers, the order of the positions; unused ones are H or OH. Bridge positions count the residues as written; N and C are the ends. Square brackets hold non-standard residues; d marks the D form. Peptide text beside a SMILES is read from it. ξ: configuration not given here. X2 = NC(=O)[C@H](CSCc1cccc(C[*:1])c1)CC(=O)[C@@H]1CCCN1[*:2]; Phe(3,4,5-F3) = N[C@@H](Cc1cc(F)c(F)c(F)c1)C(=O)O; Phe(4-CF3) = N[C@@H](Cc1ccc(C(F)(F)F)cc1)C(=O)O; Trp(5-F) = N[C@@H](Cc1c[nH]c2ccc(F)cc12)C(=O)O; Asp(3,3-Me2) = CC(C)(C(=O)O)[C@H](N)C(=O)O; Bip = N[C@@H](Cc1ccc(-c2ccccc2)cc1)C(=O)O; Phe(3-CN) = N#Cc1cccc(C[C@H](N)C(=O)O)c1; X1 = O=C(CCSCc1cccc(CSCCN[*:1])c1)[*:2]; Phe(4-F) = N[C@@H](Cc1ccc(F)cc1)C(=O)O; Pro(4,4-F2) = O=C(O)[C@@H]1CC(F)(F)CN1; 1Nal = N[C@@H](Cc1cccc2ccccc12)C(=O)O; 2Nal = N[C@@H](Cc1ccc2ccccc2c1)C(=O)O; mXylylene = c1cc(C[*:1])cc(C[*:2])c1; NMeY = CN[C@@H](Cc1ccc(O)cc1)C(=O)O; X3 = O=C(CCSC/C=C/CSCCN[*:1])[*:2]; hhPhe = N[C@@H](CCCc1ccccc1)C(=O)O; NMeF = CN[C@@H](Cc1ccccc1)C(=O)O; αMeP = C[C@@]1(C(=O)O)CCCN1; Aze = O=C(O)[C@@H]1CCN1; ξP = O=C(O)C1CCCN1; Mpa = O=C(O)CCS
Assays:
[1] = molecular target: human PCSK9 / human LDLR EGFa domain (Homo sapiens, UniProt Q8NBP7); test: TR-FRET assay of inhibition of the PCSK9-LDLR protein-protein interaction; type: binding; conditions: 20 nM human PCSK9, 20 nM human LDLR EGFa domain, 2 hours room temperature
human PCSK9 / human LDLR EGFa domain, sequence (Q8NBP7 153-692): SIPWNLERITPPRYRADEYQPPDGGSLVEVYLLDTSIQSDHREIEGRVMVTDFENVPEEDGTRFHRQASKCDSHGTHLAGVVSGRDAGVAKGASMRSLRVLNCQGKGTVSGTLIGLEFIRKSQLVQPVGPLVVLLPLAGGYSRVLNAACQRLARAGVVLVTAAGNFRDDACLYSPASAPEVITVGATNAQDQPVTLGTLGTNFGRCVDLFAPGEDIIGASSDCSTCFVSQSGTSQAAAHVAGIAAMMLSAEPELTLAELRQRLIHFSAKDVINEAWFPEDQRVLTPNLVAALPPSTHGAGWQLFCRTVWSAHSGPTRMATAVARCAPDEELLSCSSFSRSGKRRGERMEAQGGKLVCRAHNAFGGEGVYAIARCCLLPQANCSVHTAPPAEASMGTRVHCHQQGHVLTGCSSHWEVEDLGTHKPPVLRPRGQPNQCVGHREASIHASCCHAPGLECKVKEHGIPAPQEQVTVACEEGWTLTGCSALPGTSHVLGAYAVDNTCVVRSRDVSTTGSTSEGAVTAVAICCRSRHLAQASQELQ
Description: A time-resolved fluorescence resonance energy (TR-FRET) assay was used to measure inhibition of the PCSK9-LDLR protein-protein interaction. Briefly, 20 nM avitag-biotinylated human PCSK9 was incubated with 20 nM his-tagged human LDLR EGFa domain in the presence of 5 nM LANCE Ulight Streptavidin (Perkin Elmer) and 5 nM europium-Anti-6×His (Perkin Elmer) for 2 hours covered at room temperature in buffer containing 50 mM HEPES, 150 mM NaCl, 5 mM CaCl2), 0.01% BSA and 0.01% Surfactant P20. Compounds were tested in dose-response and concentrations giving half-maximal inhibition calculated using a 4-parameter fit equation.

PCSK9 = molecular target: T1, PCSK9 (Homo sapiens, UniProt Q8NBP7); test: PCSK9 Alexa FRET Standard assay (displacement of AlexaFluor647 tagged cyclic peptide Reagent A); type: binding; conditions: 0.5 nM PCSK9, 20 nM AF cyclic peptide Reagent A
T1 construct: biotin (biotinylated)
T1 sequence (Q8NBP7 153-692): as above
Description: A solution containing 1 nM biotinylated PCSK9+2.5 nM Lance Streptavidin Europium (Strep-Eu) was made in 50 mM HEPES pH 7.4, 0.15 M NaCl, 5 mM CaCl2), 0.01% BSA, and 0.01% Surfactant P20. A separate solution containing 40 nM of the AlexaFluor tagged cyclic peptide was made in the same buffer system. An Echo was used to transfer 0.750 ul of compound to an assay plate followed by the addition of 15 ul of PCSK9+Stept-Eu and 15 ul of AF peptide. The final assay volume was 30.750 ul containing 0.5 nM PCSK9, 1.25 nM Strep-Eu, and 20 nM AF cyclic peptide. The reaction was incubated at room temperature for at least two hours prior to fluorescence measurements using an Envision Multilabel Reader. IC50 values were determined by fitting data to a sigmoidal dose-response curve using nonlinear regression. Ki was then calculated from the IC50 and the KD of AF cyclic peptide. Counts (B-counts) of the europium-labeled PCSK9 were followed to observe if compounds were […]. A fall off of the B-counts likely indicated a false positive of inhibition. Data from this procedure was reported as “A=‘numerical value’ (nanomolar)”

SMILES | IC50 [1] | IC50 (PCSK9)
C[C@@H]1NC(=O)[C@@H]2CCCN2C(=O)[C@H](Cc2ccc(F)cc2)NC(=O)[C@H](Cc2c[nH]c3ccc(F)cc23)NC(=O)CNC(=O)[C@H](CCCCN)NC(=O)CCSCc2cccc(c2)CSC[C@@H](C(N)=O)NC(=O)[C@@H]2CCCN2C(=O)[C@H](Cc2ccc(O)cc2)NC1=O [Compound 006] ([Mpa]KG[Trp(5-F)][Phe(4-F)]PAYPC-NH2; linker 1-10 via mXylylene) | 0.1 to 1 µM | 0.1 to 1 µM
C[C@@H]1NC(=O)[C@@H]2CCCN2C(=O)[C@H](Cc2ccc3ccccc3c2)NC(=O)[C@H](Cc2c[nH]c3ccc(F)cc23)NC(=O)CNC(=O)[C@H](CCCCN)NC(=O)CCSCc2cccc(c2)CSC[C@@H](C(N)=O)NC(=O)[C@@H]2CCCN2C(=O)[C@H](Cc2ccc(O)cc2)NC1=O [Compound 011] ([Mpa]KG[Trp(5-F)][2Nal]PAYPC-NH2; linker 1-10 via mXylylene) | 0.001 to 0.1 µM | 0.001 to 0.1 µM
C[C@@H]1NC(=O)[C@@H]2CCCN2C(=O)[C@H](Cc2cccc3ccccc23)NC(=O)[C@H](Cc2c[nH]c3ccc(F)cc23)NC(=O)CNC(=O)[C@H](CCCCN)NC(=O)CCSCc2cccc(c2)CSC[C@@H](C(N)=O)NC(=O)[C@@H]2CCCN2C(=O)[C@H](Cc2ccc(O)cc2)NC1=O [Compound 012] ([Mpa]KG[Trp(5-F)][1Nal]PAYPC-NH2; linker 1-10 via mXylylene) | 0.001 to 0.1 µM | 0.001 to 0.1 µM
C[C@@H]1NC(=O)[C@@H]2CCCN2C(=O)[C@H](CCCc2ccccc2)NC(=O)[C@H](Cc2c[nH]c3ccc(F)cc23)NC(=O)CNC(=O)[C@H](CCCCN)NC(=O)CCSCc2cccc(c2)CSC[C@@H](C(N)=O)NC(=O)[C@@H]2CCCN2C(=O)[C@H](Cc2ccc(O)cc2)NC1=O [Compound 013] ([Mpa]KG[Trp(5-F)][hhPhe]PAYPC-NH2; linker 1-10 via mXylylene) | 0.001 to 0.1 µM | 0.001 to 0.1 µM
C[C@@H]1NC(=O)[C@@H]2CCCN2C(=O)[C@H](Cc2cc(F)c(F)c(F)c2)NC(=O)[C@H](Cc2c[nH]c3ccc(F)cc23)NC(=O)CNC(=O)[C@H](CCCCN)NC(=O)CCSCc2cccc(c2)CSC[C@@H](C(N)=O)NC(=O)[C@@H]2CCCN2C(=O)[C@H](Cc2ccc(O)cc2)NC1=O [Compound 014] ([Mpa]KG[Trp(5-F)][Phe(3,4,5-F3)]PAYPC-NH2; linker 1-10 via mXylylene) | 0.001 to 0.1 µM | 0.001 to 0.1 µM
C[C@@H]1NC(=O)[C@@H]2CCCN2C(=O)[C@H](Cc2cccc(C#N)c2)NC(=O)[C@H](Cc2c[nH]c3ccc(F)cc23)NC(=O)CNC(=O)[C@H](CCCCN)NC(=O)CCSCc2cccc(c2)CSC[C@@H](C(N)=O)NC(=O)[C@@H]2CCCN2C(=O)[C@H](Cc2ccc(O)cc2)NC1=O [Compound 015] ([Mpa]KG[Trp(5-F)][Phe(3-CN)]PAYPC-NH2; linker 1-10 via mXylylene) | 0.001 to 0.1 µM | 0.001 to 0.1 µM
C[C@@H]1NC(=O)[C@@H]2CCCN2C(=O)[C@H](Cc2ccc(-c3ccccc3)cc2)NC(=O)[C@H](Cc2c[nH]c3ccc(F)cc23)NC(=O)CNC(=O)[C@H](CCCCN)NC(=O)CCSCc2cccc(c2)CSC[C@@H](C(N)=O)NC(=O)[C@@H]2CCCN2C(=O)[C@H](Cc2ccc(O)cc2)NC1=O [Compound 017] ([Mpa]KG[Trp(5-F)][Bip]PAYPC-NH2; linker 1-10 via mXylylene) | 0.1 to 1 µM | 1 to 12.1 µM
C[C@@H]1NC(=O)[C@@H]2CCN2C(=O)[C@H](Cc2c[nH]c3ccc(F)cc23)NC(=O)[C@H](Cc2c[nH]c3ccc(F)cc23)NC(=O)[C@@H](C)NC(=O)[C@H](CCCCN)NC(=O)CCSCc2cccc(c2)CSC[C@@H](C(N)=O)CC(=O)[C@@H]2CCCN2C(=O)[C@H](Cc2ccc(O)cc2)NC1=O [Compound 034] ([Mpa]K[dA][Trp(5-F)][Trp(5-F)][Aze]AY; linker 1-C via X2) | 0.1 to 1 µM | 0.001 to 0.1 µM
C[C@@H]1NC(=O)[C@@H]2CC(F)(F)CN2C(=O)[C@H](Cc2c[nH]c3ccc(F)cc23)NC(=O)[C@H](Cc2c[nH]c3ccc(F)cc23)NC(=O)[C@@H](C)NC(=O)[C@H](CCCCN)NC(=O)CCSCc2cccc(c2)CSC[C@@H](C(N)=O)NC(=O)[C@@H]2CCCN2C(=O)[C@H](Cc2ccc(O)cc2)NC1=O [Compound 036] ([Mpa]K[dA][Trp(5-F)][Trp(5-F)][Pro(4,4-F2)]AYPC-NH2; linker 1-10 via mXylylene) | 0.1 to 1 µM | 0.1 to 1 µM
NCCCC[C@@H]1NC(=O)CCSCc2cccc(c2)CSCCNC(=O)C2CCCN2C(=O)[C@H](Cc2ccc(O)cc2)NC(=O)CNC(=O)[C@H]2CCCN2C(=O)[C@H](Cc2c[nH]c3ccc(F)cc23)NC(=O)[C@H](Cc2c[nH]c3ccc(F)cc23)NC(=O)CNC1=O (some centres unmarked) [Compound 041] (cyclo(G[Trp(5-F)][Trp(5-F)][dP]GY[ξP][X1]K)) | 0.001 to 0.1 µM | 0.001 to 0.1 µM
C[C@@H]1NC(=O)[C@@H]2CCCN2C(=O)[C@H](Cc2c[nH]c3ccc(F)cc23)NC(=O)[C@H](Cc2c[nH]c3ccc(F)cc23)NC(=O)[C@@H](C)NC(=O)[C@H](CCCCN)NC(=O)CCSC/C=C/CSCCNC(=O)[C@]2(C)CCCN2C(=O)[C@H](Cc2ccc(O)cc2)NC1=O [Compound 045] (cyclo(AY[αMeP][X3]K[dA][Trp(5-F)][Trp(5-F)]P)) | 0.001 to 0.1 µM | 0.001 to 0.1 µM
C[C@@H]1NC(=O)[C@@H]2CCCN2C(=O)[C@H](Cc2c[nH]c3ccc(F)cc23)NC(=O)[C@H](Cc2c[nH]c3ccc(F)cc23)NC(=O)[C@@H](C)NC(=O)[C@@H]2CCCN2C(=O)CCSCc2cccc(c2)CSCCNC(=O)[C@@H]2CCCN2C(=O)[C@H](Cc2ccc(O)cc2)NC1=O [Compound 050] (cyclo(AYP[X1]P[dA][Trp(5-F)][Trp(5-F)]P)) | 0.001 to 0.1 µM | 1 to 12.1 µM
COc1ccc(C[C@H]2C(=O)N3CCC[C@H]3C(=O)NCCSCc3cccc(c3)CSCCC(=O)N3CCC[C@H]3C(=O)N[C@H](C)C(=O)N[C@@H](Cc3c[nH]c4ccc(F)cc34)C(=O)N[C@@H](Cc3c[nH]c4ccc(F)cc34)C(=O)N3CCC[C@H]3C(=O)N[C@@H](C)C(=O)N2C)cc1 [Compound 053] (cyclo(A[NMeY](Me)P[X1]P[dA][Trp(5-F)][Trp(5-F)]P)) | 0.1 to 1 µM | 1 to 12.1 µM
C[C@@H]1NC(=O)CCSCc2cccc(c2)CSCCNC(=O)[C@@H]2CCCN2C(=O)[C@H](Cc2ccccc2)N(C)C(=O)[C@H](C)NC(=O)[C@@H]2CCCN2C(=O)[C@H](Cc2c[nH]c3ccc(F)cc23)NC(=O)[C@H](Cc2c[nH]c3ccc(F)cc23)NC(=O)[C@@H](C)NC1=O [Compound 063] (cyclo(A[NMeF]P[X1]A[dA][Trp(5-F)][Trp(5-F)]P)) | 0.001 to 0.1 µM | 0.001 to 0.1 µM
C[C@@H]1NC(=O)CCSCc2cccc(c2)CSC[C@@H](C(N)=O)NC(=O)[C@@H]2CCCN2C(=O)[C@H](Cc2ccc(C(F)(F)F)cc2)NC(=O)[C@H](C)NC(=O)[C@@H]2CCCN2C(=O)[C@H](Cc2c[nH]c3ccc(F)cc23)NC(=O)[C@H](Cc2c[nH]c3ccc(F)cc23)NC(=O)[C@@H](C)NC1=O [Compound 084] ([Mpa]A[dA][Trp(5-F)][Trp(5-F)]PA[Phe(4-CF3)]PC-NH2; linker 1-10 via mXylylene) | 0.1 to 1 µM | 0.001 to 0.1 µM
COc1ccc(C[C@@H]2NC(=O)[C@H](C)NC(=O)[C@@H]3CCCN3C(=O)[C@H](NC(=O)[C@H](Cc3c[nH]c4ccc(F)cc34)NC(C)=O)Cc3cn(c4ccc(F)cc34)Cc3cn(nn3)-c3cccc(c3)CSCCNC(=O)[C@]3(C)CCCN3C2=O)cc1 [Compound 101] | 0.001 to 0.1 µM | 0.001 to 0.1 µM
COc1ccc(C[C@@H]2NC(=O)[C@H](C)NC(=O)[C@@H]3CCCN3C(=O)[C@H](NC(=O)[C@H](Cc3c[nH]c4ccc(F)cc34)NC(=O)[C@@H](C)NC(C)=O)Cc3cn(c4ccc(F)cc34)Cc3cn(nn3)-c3cccc(c3)CSCCNC(=O)[C@]3(C)CCCN3C2=O)cc1 [Compound 102] | 0.001 to 0.1 µM | 0.001 to 0.1 µM
CC(C)(C(=O)O)[C@@H]1NC(=O)[C@H](Cc2c[nH]c3ccc(F)cc23)NC(=O)[C@H](Cc2c[nH]c3ccc(F)cc23)NC(=O)CNC(=O)[C@H](CCCCN)NC(=O)CCSCc2cccc(c2)CSC[C@@H](C(N)=O)NC(=O)[C@]2(C)CCCN2C(=O)[C@H](Cc2ccc(O)cc2)NC(=O)[C@H](Cc2cnc[nH]2)NC1=O [Compound 115] ([Mpa]KG[Trp(5-F)][Trp(5-F)][Asp(3,3-Me2)]HY[αMeP]C-NH2; linker 1-10 via mXylylene) | 0.1 to 1 µM | –

— patent US11814445B2, “Cyclic polypeptides for PCSK9 inhibition” (Ra Pharmaceuticals, Inc., priority 2018, dated 2023)
